These results are taken from patent US20190022091A1, “METHOD OF TREATMENT FOR MENTAL DISORDERS” (SUMITOMO DAINIPPON PHARMA CO., LTD., priority 2010, published 2019).

The subject of one experiment is common marmosets. The experiment in a line: ORD test (object retrieval with detour test) in marmosets. The experiment is classed as in vivo, common marmoset. As to conditions: for variation of the correct % of the ORD test (difficult task): single oral administration, test 2 hours after administration vs before, FIG. 2-6. As for the experimental part: ORD test (object retrieval with detour test) is already reported as a method for evaluating executive function (attention function/impulsiveness) in primates.
Male and female common marmosets having body weights of 250-450 g were used. Haloperidol, clozapine, olanzapine, risperidone, and lurasidone hydrochloride were separately suspended in 0.5% methylcellulose (MC), and then each suspension was orally administered in a dose of 5 mL/kg to the marmosets. On the other hand, L-745,870 which is a D4 antagonist, and Ro 10-5824 which is a D4 agonist were separately dissolved in saline, and then each solution was intramuscularly administered to the femoris area in a dose of 0.5 mL/kg.
According to the method described in the literature (Psychopharmacology (2006) 196: 643-648) which was partially modified, the ORD test was carried out as follows (see FIG. 1).
In each of the boxes, 0.3-0.5 g of Baumkuchen as a food reward is placed at the point of each triangle in FIG. 1. The marmoset can reach out from the cage (shown as dotted line region) to obtain the reward placed in the acrylic box. FIG. 1 is a view from the directly above. Amongst the situations between each direction of the box and each position of the reward, 5 patterns (line of sight, left outside, left inside, right outside, and right inside) are defined as “easy task”, and the other 2 patterns (left deep, and right deep) are defined as “difficult task”. It is recorded as “correct” when the test animal can obtain the reward in one trial, while it is recorded as “incorrect” when the animal can obtain the reward in the second trial or later.
The ORD test is carried out in the order described in the following table without any interval between each trial, which is referred to as “one series”. The marmoset is made to be trained with the one series once a day.
The marmosets were trained with the ORD test at least 10 times, and then the trained marmosets were used in the following main test.
The main ORD test was carried out as follows.
(1) The ORD test is carried out before administering each test drug (former value). Hereinafter, the ORD test is done in one series containing the 17 trials corresponding to the above-mentioned training.
(2) Two hours after administering each test drug, the same ORD test is carried out again (latter value). In case of the combined administration, the first drug (lurasidone hydrochloride) is administered; one hour later, the second drug (the D4 antagonist or D agonist) is administered; and then the ORD test is done one hour after the second drug is administered.
(3) The variation of correct % in the Difficult task is calculated according to the following formula in order to evaluate the effect of each drug. For example, in case that the “correct count” in the before-administration test (former value) is 3 and the “correct count” in the after-administration test (latter value) is 5, the “correct %” is calculated to rise in 25% (=(5-3)/8×100%) based on the fact that the trial count of the difficult task in each series is 8.
The variation of the correct %={the difference between the both correct counts in the difficult task (latter value−former value)}/8×100
(4) The amount of Baumkuchen is 0.5 g×17=8.5 g in one series. The marmoset can be tested at most 2 sets per day, i.e. it has been confirmed that the marmoset can take at most 17 g of Baumkuchen per day, but, all the test marmosets cannot be satisfied with 17 g of Baumkuchen.
(5) In case that a marmoset treated with the drug is used again, the marmoset is given in 2 week-drug-holidays, and before the test it is confirmed that the previous medication will not affect the test.
(6) 5 to 6 marmosets were used per one test group. When a marmoset (s) suffered from vomiting or cataleptic akinesia induced by the drug and then the ORD test with the marmoset (s) could not be done, the data of the marmoset(s) were excluded. […]

The target of another experiment is dopamine D2 (Homo sapiens, UniProt P14416). The note with it: cited from earlier work.
A further experiment concerns the target T1, serotonin 5-HT1A (Homo sapiens, UniProt P08908).
T1 sequence (P08908 1-422): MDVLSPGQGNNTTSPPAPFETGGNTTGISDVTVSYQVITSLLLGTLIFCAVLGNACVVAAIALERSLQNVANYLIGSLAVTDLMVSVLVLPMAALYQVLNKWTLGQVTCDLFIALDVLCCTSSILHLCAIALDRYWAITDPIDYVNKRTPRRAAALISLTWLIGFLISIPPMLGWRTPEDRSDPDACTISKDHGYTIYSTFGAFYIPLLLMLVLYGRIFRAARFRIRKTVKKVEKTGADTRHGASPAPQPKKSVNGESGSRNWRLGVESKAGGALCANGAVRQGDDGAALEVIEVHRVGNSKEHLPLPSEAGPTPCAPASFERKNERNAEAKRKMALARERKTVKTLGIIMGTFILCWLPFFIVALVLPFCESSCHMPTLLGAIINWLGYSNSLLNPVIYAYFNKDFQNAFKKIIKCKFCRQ
The note with it: cited from earlier work.

A further experiment addresses 5-HT2A (Homo sapiens, UniProt P28223). The note with it: cited from earlier work.
The target in another experiment is 5-HT7 (Homo sapiens, UniProt P34969). As to conditions: cited from earlier work.
Experiment [1] concerns the target T2, noradrenaline α2c receptors (Homo sapiens, UniProt P18825).
T2 sequence (P18825 1-462): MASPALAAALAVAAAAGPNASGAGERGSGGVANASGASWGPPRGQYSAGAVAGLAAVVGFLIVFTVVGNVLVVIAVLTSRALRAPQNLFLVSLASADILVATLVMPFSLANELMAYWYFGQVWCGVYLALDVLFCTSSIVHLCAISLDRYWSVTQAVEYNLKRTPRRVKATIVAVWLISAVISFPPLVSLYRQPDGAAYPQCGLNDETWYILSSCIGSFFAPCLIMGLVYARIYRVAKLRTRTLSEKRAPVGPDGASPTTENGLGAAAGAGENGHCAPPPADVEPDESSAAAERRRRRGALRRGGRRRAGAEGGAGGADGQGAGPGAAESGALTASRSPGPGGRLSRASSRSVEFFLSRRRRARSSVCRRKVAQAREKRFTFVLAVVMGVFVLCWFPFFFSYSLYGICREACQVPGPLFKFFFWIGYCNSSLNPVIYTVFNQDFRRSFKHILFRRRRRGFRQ
The note with it: cited from earlier work.

The next experiment deals with histamine H1 (Homo sapiens, UniProt P35367). As to conditions: cited from earlier work.
The target in another experiment is T3, muscarinic M1 receptors (Homo sapiens, UniProt P11229).
T3 sequence (P11229 1-460): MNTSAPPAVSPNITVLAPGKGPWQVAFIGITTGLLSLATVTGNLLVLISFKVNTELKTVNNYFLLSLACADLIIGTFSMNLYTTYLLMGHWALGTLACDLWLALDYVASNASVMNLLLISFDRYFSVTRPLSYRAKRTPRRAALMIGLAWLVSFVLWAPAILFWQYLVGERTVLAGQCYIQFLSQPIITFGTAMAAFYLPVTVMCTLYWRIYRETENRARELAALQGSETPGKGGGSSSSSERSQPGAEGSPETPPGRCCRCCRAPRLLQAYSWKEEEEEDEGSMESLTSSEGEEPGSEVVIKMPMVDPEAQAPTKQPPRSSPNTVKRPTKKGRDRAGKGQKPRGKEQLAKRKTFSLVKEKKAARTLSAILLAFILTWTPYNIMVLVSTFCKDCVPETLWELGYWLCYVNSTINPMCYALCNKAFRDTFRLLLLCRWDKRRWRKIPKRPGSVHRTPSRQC
As to conditions: cited from earlier work.

In the next experiment the test system is SHRSP rats. The experiment in a line: Y-maze test with juvenile SHRSP rats. The format is in vivo, rat. The note with it: for Total Arm Entries mean ± SE / % of Alternation Behavior mean ± SE: SHRSP; for Total Arm Entries mean ± SE: 8 minute session; for % of Alternation Behavior mean ± SE: 30 minutes before evaluation. The text has this:
According to the Y-maze test with juvenile stroke-prone spontaneously hypertensive rats (SHRSP), it is possible to evaluate the effect of lurasidone hydrochloride on attention function with spontaneous Alternation Behavior as an index of attention or concentration (Behav Brain Funct. 2005 Jul. 15; 1:9). Moreover, the effects of lurasidone hydrochloride on hyperactivity, which is one of core symptoms in ADHD, can be confirmed by the total number of the Arm Entries in a Y-maze test.
For the estimation of inattentive behavior, male juvenile SHRSP rats as an ADHD model and WKY rats as a reference (4 weeks old, n=8-10/group) are used. These animals are commercially available from Charles River Laboratories Japan, inc. or Hoshino Laboratory animals, inc. Lurasidone hydrochloride (e.g. 0.01, 0.03, 0.1, 0.3, 1, 3 and 10 mg/kg; produced by Dainippon Sumitomo Pharma Co., Ltd.) is dissolved in 0.5% methylcellulose and 0.2% Tween 80, and is administrated intraperitoneally in a volume of 1 ml/kg, 30 minutes before the evaluation.
The method of Y-maze test was already reported elsewhere (Behav Pharmacol. 2002 February; 13(1):1-13). The “Arm Entry” means the entry of all four paws into one arm. The “Alternation Behavior”, which is actual alternations, means the consecutive Arm Entries into three different arms. The test is carried out for 8 minutes in one session and the total number that a rat performs the Arm Entry is counted. The “Maximum Alternations” means the total number of the Arm Entries minus two. An index of attention is calculated as a percentage of the Alternation Behavior, as described below.
A percentage of Alternation Behavior=(the total number of the Alternation Behavior)/(the Maximum Alternations)×100

Structures are written as SMILES. Where a name gives a salt, the structure may show the parent alone.

5-HT2A, sequence (P28223 whole entry, species assumed): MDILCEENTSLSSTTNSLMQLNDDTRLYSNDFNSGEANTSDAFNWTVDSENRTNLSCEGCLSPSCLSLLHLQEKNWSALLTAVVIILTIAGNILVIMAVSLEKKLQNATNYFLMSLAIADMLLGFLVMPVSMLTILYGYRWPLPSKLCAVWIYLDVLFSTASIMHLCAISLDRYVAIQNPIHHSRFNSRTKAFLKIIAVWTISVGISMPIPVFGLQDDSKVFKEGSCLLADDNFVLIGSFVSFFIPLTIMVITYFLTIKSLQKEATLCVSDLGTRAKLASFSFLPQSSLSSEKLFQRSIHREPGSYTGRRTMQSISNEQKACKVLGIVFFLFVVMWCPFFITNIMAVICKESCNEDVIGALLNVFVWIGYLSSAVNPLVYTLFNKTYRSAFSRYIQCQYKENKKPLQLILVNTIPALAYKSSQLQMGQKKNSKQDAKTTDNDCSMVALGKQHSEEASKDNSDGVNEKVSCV
dopamine D2, sequence (P14416 whole entry): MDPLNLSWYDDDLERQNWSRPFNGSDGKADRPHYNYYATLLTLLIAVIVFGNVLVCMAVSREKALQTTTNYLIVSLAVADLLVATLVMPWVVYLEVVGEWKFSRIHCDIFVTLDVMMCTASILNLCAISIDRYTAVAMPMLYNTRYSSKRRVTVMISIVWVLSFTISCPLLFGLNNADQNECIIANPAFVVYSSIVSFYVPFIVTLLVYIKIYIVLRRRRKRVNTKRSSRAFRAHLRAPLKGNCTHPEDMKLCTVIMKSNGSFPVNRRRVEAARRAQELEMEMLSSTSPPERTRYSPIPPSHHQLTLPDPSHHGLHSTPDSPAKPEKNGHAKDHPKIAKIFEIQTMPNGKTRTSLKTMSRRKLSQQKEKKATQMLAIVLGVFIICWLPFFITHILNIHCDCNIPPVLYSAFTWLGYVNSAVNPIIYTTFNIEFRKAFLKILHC
5-HT7, sequence (P34969 whole entry, species assumed): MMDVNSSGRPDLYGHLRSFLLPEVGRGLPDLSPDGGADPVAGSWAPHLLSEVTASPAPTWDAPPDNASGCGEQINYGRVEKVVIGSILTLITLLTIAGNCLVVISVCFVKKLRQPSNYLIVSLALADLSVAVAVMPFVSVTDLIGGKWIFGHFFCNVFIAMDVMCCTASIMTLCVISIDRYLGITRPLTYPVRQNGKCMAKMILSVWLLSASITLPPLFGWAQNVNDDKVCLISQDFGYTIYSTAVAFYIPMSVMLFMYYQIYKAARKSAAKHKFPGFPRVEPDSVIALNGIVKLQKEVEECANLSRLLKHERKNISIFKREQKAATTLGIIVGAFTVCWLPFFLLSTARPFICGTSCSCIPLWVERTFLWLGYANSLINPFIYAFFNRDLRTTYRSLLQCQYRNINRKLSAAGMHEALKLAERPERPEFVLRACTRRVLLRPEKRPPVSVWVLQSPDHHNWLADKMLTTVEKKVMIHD
histamine H1, sequence (P35367 whole entry): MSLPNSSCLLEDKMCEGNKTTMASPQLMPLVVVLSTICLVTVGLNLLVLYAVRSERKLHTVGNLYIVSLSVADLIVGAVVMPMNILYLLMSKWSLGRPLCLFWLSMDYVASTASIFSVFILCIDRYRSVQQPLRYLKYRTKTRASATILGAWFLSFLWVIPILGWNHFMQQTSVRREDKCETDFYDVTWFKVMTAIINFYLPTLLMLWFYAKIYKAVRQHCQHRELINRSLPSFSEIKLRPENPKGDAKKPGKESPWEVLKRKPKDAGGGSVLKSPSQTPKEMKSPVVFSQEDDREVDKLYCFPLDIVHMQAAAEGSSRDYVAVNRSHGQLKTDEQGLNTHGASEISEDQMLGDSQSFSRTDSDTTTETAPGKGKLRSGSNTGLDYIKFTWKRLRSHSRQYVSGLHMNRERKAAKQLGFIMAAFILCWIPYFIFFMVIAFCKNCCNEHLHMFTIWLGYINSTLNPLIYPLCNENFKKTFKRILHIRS

In the case of `Clc1ccc(N2CCN(Cc3c[nH]c4ncccc34)CC2)cc1` [L-745,870], the “correct % of the ORD test” value with common marmosets (L-745,870 3 mg/kg i.m. combined with lurasidone hydrochloride 10 mg/kg p.o., FIG. 7) is “decreased the correct % which was increased by the administration of lurasidone hydrochloride”. In addition, in the experiment with common marmosets (single intramuscular administration, 10 mg/kg, FIG. 7), the ORD score result was “had no effects on the ORD score”.
Consider `O=C1[C@@H]2[C@H]3CC[C@H](C3)[C@@H]2C(=O)N1C[C@@H]1CCCC[C@H]1CN1CCN(c2nsc3ccccc23)CC1` [Lurasidone, (3aR, 4S, 7R, 7aS)-2-{1(1R,2R)-2-(4-(1,2-benzisothiazol-3-yl)piperazin-1-yl-methyl]cyclohexylmethyl}hexahydro-4,7-methano-2H-isoindole-1,3-dione], for which the affinity result was “high affinity” at dopamine D2; “high affinity” on serotonin 5-HT1A; “high affinity” on 5-HT2A; “high affinity” on 5-HT7; “high affinity” in experiment [1]; “minimal to no affinity” at histamine H1. The affinity entry at muscarinic M1 receptors is on record as “minimal to no affinity”.
Take `Cc1ncc(CN2CC=C(c3ccccc3)CC2)c(N)n1` [Ro 10-5824, 2-Methyl-5-(4-phenyl-1,2,3,6-tetrahydropyridin-1-yl-methyl)pyrimidine-4-amine]: the “correct % of the ORD test” value with common marmosets (Ro 10-5824 alone, 0.3 mg/kg i.m.) is given as “had no effects on the correct %”. The ORD score entry in the experiment with common marmosets (single administration i.m., dose series, FIG. 8) is “increased the ORD score in a dose dependent manner”.
For `O=C(CCCN1CCC(O)(c2ccc(Cl)cc2)CC1)c1ccc(F)cc1` [haloperidol], the “variation of the correct % of the ORD test (difficult task)” value in the experiment on common marmosets is given as “decreased the correct % of the ORD test in a dose-dependent manner”.
Turning to `O=C1[C@@H]2[C@H]3CC[C@H](C3)[C@@H]2C(=O)N1C[C@@H]1CCCC[C@H]1CN1CCN(c2nsc3ccccc23)CC1` [lurasidone hydrochloride], the ORD score result with common marmosets (lurasidone hydrochloride 3 mg/kg p.o. combined with Ro 10-5824 0.3 mg/kg i.m., FIG. 8) is listed as “the ORD score was significantly increased”. Moreover, in the experiment on common marmosets (lurasidone hydrochloride alone, 3 mg/kg p.o.), the “correct % of the ORD test” value is given as “had no effects on the correct %”. In the experiment with common marmosets, the “variation of the correct % of the ORD test (difficult task)” value is recorded as “increased the correct % of the ORD test in a dose-dependent manner”. In addition, the “Total Arm Entries mean ± SE” value is 24 ± 1 in the experiment on SHRSP rats (0.1 mg/kg i.p.); 22 ± 2 in the experiment with SHRSP rats (0.3 mg/kg i.p., P < 0.05); 21 ± 1 in the experiment with SHRSP rats (1.0 mg/kg i.p., P < 0.05). For the same molecule, the “% of Alternation Behavior mean ± SE” value in the experiment with SHRSP rats (0.1 mg/kg i.p.) stood at 70 ± 5%; with SHRSP rats (0.3 mg/kg i.p., P < 0.05), 75 ± 2 %; in the experiment on SHRSP rats (1.0 mg/kg i.p.), 72 ± 2%. Besides, the “Alternation Behavior (in words)” value in the experiment with SHRSP rats (SHRSP, 0.1, 0.3 or 1.0 mg/kg, significant at 0.3 mg/kg (p=0.0124)) was “the Alternation Behavior was improved”. Further, the “number of total Arm Entries (in words)” value in the experiment with SHRSP rats (SHRSP, 0.1, 0.3 or 1.0 mg/kg, significant at 0.3 (p=0.0096) and 1 (p=0.0047) mg/kg) is given as “showed the decreased number of total Arm Entries”.
As for `Cc1nc2n(c(=O)c1CCN1CCC(c3noc4cc(F)ccc34)CC1)CCCC2` [risperidone], in the experiment with common marmosets, the “variation of the correct % of the ORD test (difficult task)” value is listed as “decreased the correct % of the ORD test in a dose-dependent manner”.
